Earlier results, collected in patent publication US20250263624A1, “Environmentally friendly metal cutting oil with high load-bearing and high anti-wear properties” (Shenyang Peite Technology Co., Ltd, priority 2025, published 2025).

CC(C)CCCCCOC(=O)CCCCCCCCC(=O)OCCCCCC(C)C [diisooctyl sebacate]
Water solubility: Insoluble
